# Active and inactive are the calls of the source. The rule behind the calls is not given here.
# How the values were obtained:
# Dentine = assay: Induction of apparent modulus of elasticity in human molar dentine after 1 hr by bending method; type: functional, tissue-based
# Hathewaya histolytica = assay: Inhibition of Clostridium histolyticum collagenase-induced degradation of human molar dentin assessed as reduction in degradation after 24 hrs
Compound,Activity (Dentine),inhibition (Hathewaya histolytica)
Oc1cc(O)c2c(c1)O[C@H](c1ccc(O)c(O)c1)[C@H](O)[C@H]2c1c(O)c2c(c3c1O[C@]1(c4ccc(O)c(O)c4)Oc4cc(O)cc(O)c4[C@H]3[C@H]1O)O[C@H](c1ccc(O)c(O)c1)[C@H](O)[C@H]2c1c(O)cc(O)c2c1O[C@H](c1ccc(O)c(O)c1)[C@H](O)C2,Active,Active
Oc1cc(O)c2c(c1)O[C@@]1(c3ccc(O)c(O)c3)Oc3cc(O)c4c(c3[C@@H]2[C@H]1O)O[C@H](c1ccc(O)c(O)c1)[C@H](O)[C@H]4c1c(O)cc(O)c2c1O[C@H](c1ccc(O)c(O)c1)[C@H](O)C2,Active,Active
Oc1cc(O)c2c(c1)O[C@@]1(c3ccc(O)c(O)c3)Oc3cc(O)c4c(c3[C@@H]2[C@H]1O)O[C@H](c1ccc(O)c(O)c1)[C@H](O)[C@H]4c1c(O)cc2c(c1O)[C@@H]1c3c(cc(O)c4c3O[C@H](c3ccc(O)c(O)c3)[C@@H](O)C4)O[C@](c3ccc(O)c(O)c3)(O2)[C@@H]1O,Active,Active
